Data on one compound can be found in patent US6333340A, “Small molecule sulfonamides for vision and memory disorders” (Gpi Nil Holdings, Inc., priority 1998, dated 2001).

Series [1] has as its system retinal ganglion cells. The series is described as follows: Retinal ischemia, retinal ganglion cell degeneration. The series is classed as in vivo, adult rats. The settings on record: 10 mg/kg, s.c. 1 hour prior to ischemia and 10 mg/kg/day next four days; 28 days. The text has this: Retinal ganglion cells were retrogradely labeled in adult rats by bilateral injection of fluorogold in their lateral geniculate nuclei. Labeled ganglion cells in the normal rat retina appear as white profiles against the dark background (FIG. 1A). Complete retinal ischemia was produced by infusing normal saline solution into the retinal vitreous cavity of each eye until the intraocular pressure exceeded arterial blood pressure. 28 days after the ischemic episode extensive degeneration of retinal ganglion cell was evidenced by massive reduction in the density of fluorogold labeled cells (FIG. 1B).

The test system of the next series is aged mice. The series is described as follows: Morris watermaze, spatial learning and memory in aged mice. It counts as in vivo, male C57BL/6N-Nia mice. The settings on record: 10mg/kg daily. The source says:
The Morris watermaze is widely used for assessing spatial memory formation and retention in experimental animals. The test depends on the animal's ability to utilize spatial visual information in order to locate a submerged escape platform in a water tank. It is important that the tank itself be as devoid of specific visual features as possible--thus, it is always circular in shape, the sides are kept smooth and in uniform dull colors, and the water is rendered opaque with nontoxic watercolor pigment or powdered milk. This is to ensure that the animal navigates only by the use of more distant visual cues, or by the use of intra-maze cues specifically provided by the experimenter. The tank is filled to a level which forces the animal to swim actively. Normal mice and rats react […] to the swimming part of the test and will climb onto, and remain on, an escape platform from which they are removed to a heated resting cage. If the platform is visible (i.e. above the surface), animals placed in the tank will quickly learn to home in on the platform and climb out onto it. Testing with a visible platform will also ensure that the experimental animals are not blind and show sufficient motivation and stamina to perform the task, which can be important in experiments involving aged rodents. If the platform is invisible (i.e. submerged just below the surface), normal animals learn to use distant visual cues in the test room for orientation in the test tank, and, when placed in the tank, will quickly home in on the approximate location of the platform and circle in that area until the platform is found. The animals' path, speed, and swim time are tracked with a ceiling camera for later computerized analysis. Over the course of several successive trials, spatial learning can therefore be defined as a drop of distance swum, or time elapsed, from placement in the tank until escape onto the invisible platform. The test can be adapted to assess several aspects of spatial memory: a) acquisition of a cued task, where the animal's ability to link one visual cue directly with the escape platform depends on cortical function (i.e. a ball is suspended over the escape platform and the animal learns to follow this cue to find the platform); b) acquisition of a spatial task, where the animal's ability to learn the location of a submerged escape platform based on a combination of distant visual cues is dependent upon hippocampal function (i.e. the animal learns to triangulate its position in the tank by visually aligning the paper-tower dispenser with the door and ceiling lamp); c) retention of a successfully acquired spatial task, which is predominantly dependant on cortical function (i.e. the animal must remember the spatial location of the platform over several weeks); d) a hippocampus-dependant reversal task where the animals must reacquire a new spatial platform location (i.e. the platform is moved to a new location between swim trials and the animal must abandon its previous search strategy and acquire a new one). These different modifications of the Morris watermaze procedure can be applied in sequence to the same set of experimental animals and allow for a thorough characterization of their spatial memory performance and its decline with normal ageing. […]

The target of a further series is FKBP12 (Homo sapiens, UniProt P62942). The series is described as follows: Inhibition of peptidyl-prolyl isomerase (rotamase) activity of FKBP, chymotrypsin-coupled assay. It counts as biochemical. The conditions noted are these: Table V; read-out: Ki rotomase. The text has this: The inhibition of the prolyl peptidyl cis-trans isomerase activity of FKBP may be measured as an indicator of this affinity.
Chain of FKBP12 (P62942 whole entry): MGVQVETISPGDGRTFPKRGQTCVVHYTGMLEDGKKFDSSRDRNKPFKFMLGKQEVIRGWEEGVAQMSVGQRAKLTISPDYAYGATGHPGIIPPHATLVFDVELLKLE
Inhibition of the peptidyl-prolyl isomerase (rotamase) activity of the compounds used in the inventive methods and pharmaceutical compositions can be evaluated by known methods described in the literature (Harding et al., Nature, 1989, 341:758-760; Holt et al. J. Am. Chem. Soc., 115:9923-9938). These values are obtained as apparent Ki 's and are presented for representative compounds in TABLE B.
The cis-trans isomerization of an alanine-proline bond in a model substrate, N-succinyl-Ala-Ala-Pro-Phe-p-nitroanilide, is monitored spectrophotometrically in a chymotrypsin-coupled assay, which releases para-nitroanilide from the trans form of the substrate. The inhibition of this reaction caused by the addition of different concentrations of inhibitor is determined, and the data is analyzed as a change in first-order rate constant as a function of inhibitor concentration to yield the apparent Ki values.
In a plastic cuvette are added […] of ice cold assay buffer (25 mM HEPES, pH 7.8, 100 mM NaCl), 10 mL of FKBP (2.5 mM in 10 mM Tris-Cl pH 7.5, 100 mM NaCl, 1 mM dithiothreitol), 25 mL of chymotrypsin (50 mg/ml in 1 mM HCl) and […] of test compound at various concentrations in dimethyl sulfoxide. The reaction is initiated by the addition of 5 mL of substrate (succinyl-Ala-Phe-Pro-Phe-para-nitroanilide, 5 mg/mL in 2.35 mM LiCl in trifluoroethanol).
The absorbance at 390 nm versus time is monitored for 90 seconds using a spectrophotometer and the rate constants are determined from the absorbance versus time data files.

The next series relates to retina. The series is described as follows: Streptozotocin induced diabetes, retinal neovascularization and neuron loss (cresyl violet). The series is classed as in vivo.
A further series has as its system CNS. The series is described as follows: Sprouting within the CNS following partial deafferentation. It counts as in vivo.
For a further series, the system named is peripheral nerve. The series is described as follows: Peripheral nerve regeneration. The conditions noted are these: in vivo.
In series [2] the test system is optic nerve axons and myelin. The series is described as follows: Retinal ischemia, degeneration of optic nerve axons and myelin (toluidine blue). The series is classed as in vivo, rat.
Series [3] relates to retinal ganglion cells. The series is described as follows: Optic nerve transection, ganglion cell survival and axonal dying back (Example 16). The series is classed as in vivo, Sprague Dawley rats. The settings on record: 10 mg/kg/day s.c. for 28 days; 90 days after transection. The text has this: Transection of the mammalian optic nerve results in a brief period of abortive regeneration, but the majority of axotomized neurons die and the axons from many persisting ganglion cells die back beyond the optic nerve head.

Series [4] in a line: Clearance (comments of Table V). It counts as in vitro ADME.
Where [5] appears, read: retention after 3 weeks of dosing.
[6] abbreviates: 28 day treatment beginning 8 weeks after onset of diabetes.
Setting [7] is: 28 days after 1 hour retinal ischemic episode.

Molecules are shown by their SMILES.

On to `CCC(C)(C)C(=O)C(=O)N1CCC[C@H]1C(=O)OCCCc1cccnc1` [GPI 1046], for which the “protection of the vulnerable ganglion cell population” value in the series on retinal ganglion cells [1] was “noticeable protection of a large proportion of the vulnerable ganglion cell population”. Also, the “spatial memory performance of mice with age-related spatial memory impairments” value in the series with aged mice (systemic) is recorded as “significantly enhanced spatial memory performance”. In addition, in the series with aged mice (F1.69 =3.09), the “P, retention phase, young vs aged impaired GPI-1046” value is recorded as 0.08. Moreover, the “P, retention testing, aged impaired-vehicle vs aged impaired GPI-1046” value in the series on aged mice (F1.69 =8.11) is 0.006. In the series on aged mice (setting [5]), the “retention phase, difference between young and aged impaired GPI-1046 groups” value is “no longer any statistically significant difference”; the “retention testing, aged impaired-vehicle compared with aged impaired GPI-1046” value is “"aged impaired-vehicle" treated animals performed significantly poorer than "aged impaired - GPI-1046"”. For the same compound, the Ki (in general, the dissociation constant of the complex between target and ligand, obtained from inhibition or displacement) on FKBP12 turned out to be 7.5 nM. In the series on retina (setting [6]), the “neovascularization in the PR, ONL, OPL and INL” value is reported as “reduced neovascularization”; the “protection against neuronal loss in the ONL” value is recorded as “did not appear to protect against neuronal loss in the ONL”. In the series on retina (28 day treatment, compared to streptozotocin/vehicle), the “loss of neurons in INL and GCL” value is “appeared to decrease the loss of neurons in both the INL and GCL”. In addition, the “sprouting within the CNS” value with CNS is “stimulate sprouting within the CNS following partial deafferentation”. Moreover, in the series on peripheral nerve, the peripheral nerve regeneration entry was “enhance peripheral nerve regeneration”. Moreover, in [2] (setting [7]), the “density of degenerating myelin figures” value is given as “dramatically decreased the density of degenerating myelin figures” and the “protection of optic nerve axons from degeneration” value is “protected the majority of optic nerve axons from degeneration”. Moreover, in [2] (retinal ischemia), the “protection of optic nerve element from ischemic degeneration” value is “dramatic protection of optic nerve element from ischemic degeneration”. In the series on retinal ganglion cells [3], the perikaryal neuroprotection entry is “moderate degree of perikaryal neuroprotection”, the “preservation of axons of protected neurons in the proximal stump” value was “preserved the axons of virtually all protected neurons” and the “sparing of the ganglion cell population” value was 25%. In addition, the Clearance in series [4] is 3.8 µL/min.
